# Results reported in patent EP0871454B1, “PHOSPHOROUS-CONTAINING CYSTEINE AND SERINE PROTEASE INHIBITORS” (CEPHALON, INC., priority 1995, dated 1997).
# Target: T1, Calpain I (Homo sapiens, UniProt P07384)
# T1 construct: made in house
# T1 sequence (P07384 1-714): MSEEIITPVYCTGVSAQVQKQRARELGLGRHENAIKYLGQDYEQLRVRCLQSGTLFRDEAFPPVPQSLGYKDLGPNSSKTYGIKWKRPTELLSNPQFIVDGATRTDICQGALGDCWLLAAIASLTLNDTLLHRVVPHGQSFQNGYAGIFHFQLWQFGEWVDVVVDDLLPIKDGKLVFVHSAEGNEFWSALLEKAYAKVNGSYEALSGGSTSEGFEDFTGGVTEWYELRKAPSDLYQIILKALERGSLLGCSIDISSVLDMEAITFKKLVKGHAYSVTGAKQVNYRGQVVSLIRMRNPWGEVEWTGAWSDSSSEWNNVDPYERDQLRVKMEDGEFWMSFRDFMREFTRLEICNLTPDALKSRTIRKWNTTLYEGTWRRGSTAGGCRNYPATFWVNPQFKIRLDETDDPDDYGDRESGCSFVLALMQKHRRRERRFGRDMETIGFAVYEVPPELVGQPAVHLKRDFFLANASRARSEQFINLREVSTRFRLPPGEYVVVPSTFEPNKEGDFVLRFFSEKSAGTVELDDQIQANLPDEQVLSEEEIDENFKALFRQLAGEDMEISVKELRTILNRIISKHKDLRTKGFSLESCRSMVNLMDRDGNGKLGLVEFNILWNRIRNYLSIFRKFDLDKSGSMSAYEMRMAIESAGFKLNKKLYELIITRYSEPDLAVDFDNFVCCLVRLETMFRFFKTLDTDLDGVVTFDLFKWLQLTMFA
# T1 sequence (P04632 1-268 partner): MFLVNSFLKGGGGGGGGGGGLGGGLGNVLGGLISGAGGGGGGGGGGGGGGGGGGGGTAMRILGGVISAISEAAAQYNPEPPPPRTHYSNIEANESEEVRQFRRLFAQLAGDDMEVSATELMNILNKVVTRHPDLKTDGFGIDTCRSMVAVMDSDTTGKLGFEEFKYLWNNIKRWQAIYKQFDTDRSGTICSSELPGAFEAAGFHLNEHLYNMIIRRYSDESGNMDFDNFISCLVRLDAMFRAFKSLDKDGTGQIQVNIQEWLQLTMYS
# Assay: Inhibition and rate of inactivation of calpain I activity (Succ-Leu-Tyr-MNA substrate hydrolysis)
# Type: biochemical
# Settings: for kobs/I: apparent second order rate constant of inactivation, pseudo-first order conditions, compounds tested at 0.1 µM, mean of three or more single cuvette analyses
# Protocol: Inhibition and Rate of Inactivation of Cysteine Protease Activity
# To evaluate inhibitory activity, stock solutions (40 times concentrated) of each compound to be tested were prepared in 100% anhydrous DMSO and 5 µl of each inhibitor preparation were aliquoted into each of three wells of a 96 well plate. Calpain I, prepared by a modification of the method of W. J. Lee et al. (Biochem. Internatl. 22: 163-171 (1990)), was diluted into assay buffer (i.e., 50mM Tris, 50mM NaCl, 1mM EDTA, 1mM EGTA, and 5mM β-mercaptoethanol, pH 7.5 including 0.2mM Succ-Leu-Tyr-MNA) and 175 µl aliquoted into the same wells containing the independent inhibitor stocks as well as to positive control wells containing 5 µl DMSO, but no compound. To start the reaction, 20 µl of 50 mM CaCl2 in assay buffer was added to all wells of the plate, excepting three, which were used as background signal baseline controls. Substrate hydrolysis was monitored every 5 minutes for a total of 30 minutes. Substrate hydrolysis in the absence of inhibitor was linear for up to 15 minutes.
# Inhibition of calpain I activity was calculated as the percent decrease in the rate of substrate hydrolysis in the presence of inhibitor (vi) relative to the rate in its absence (vo). Comparison between vo and vi was made within the linear range for substrate hydrolysis. […] Apparent second order rate constants were determined from analysis of reaction progress curves under pseudo-first order conditions. Each determination represents the mean of three or more independent single cuvette analyses continually monitored via a Perkin-Elmer LS50B spectrofluorimeter.
# Values for kobs/I are given in Table I for compounds tested at 0.1 µM. [drawing 8]
"% Inhib. @ 0.1 uM (0.1 uM compound, percent decrease in rate of substrate hydrolysis relative to no inhibitor)",Compound,kobs/I
–,"CC(C)CC(NC(=O)C12OC3COC(C)(C)OC3C1OC(C)(C)O2)C(=O)NC(Cc1ccccc1)C(=O)COP(=O)(OCc1ccccc1)OCc1ccccc1 [Example 37, Dibenzyl (3S)-[3-[(N-diisopropylidine-2-keto-L-gulonyl-L-leucyl)amino]-2-oxo-4-phenylbutyl] phosphate]",113000 M⁻¹ s⁻¹
–,"CC(C)C[C@H](NS(=O)(=O)N1CCOCC1)C(=O)N[C@@H](Cc1ccccc1)C(=O)COP(=O)(OCc1ccccc1)OCc1ccccc1 [Example 36, Dibenzyl (3S)-[3-[(N-morpholinylsulfonyl-L-leucyl)amino]-2-oxo-4-phenylbutyl] phosphate]",182000 M⁻¹ s⁻¹
–,"CC(C)C[C@H](NC(=O)OC(C)(C)C)C(=O)N[C@@H](Cc1ccccc1)C(=O)COP(=O)(OCc1ccccc1)OCc1ccccc1 [Example 35, Dibenzyl (3S)-[3-[(N-t-Butoxycarbonyl-L-leucyl)amino]-2-oxo-4-phenylbutyl]phosphate]",242000 M⁻¹ s⁻¹
47%,CC(C)C[C@H](NC(=O)OCc1ccccc1)C(=O)N[C@@H](Cc1ccccc1)C(=O)COP1(=O)OCC(OCc2ccccc2)CO1 (some centres unmarked) [Example 47],–
–,"CC(C)C[C@H](NC(=O)C12OC(CO)C(O)C1OC(C)(C)O2)C(=O)N[C@@H](Cc1ccccc1)C(=O)COP(=O)(OCc1ccccc1)OCc1ccccc1 (stereo partly drawn) [Example 38, Dibenzyl (3S)-[3-[(N-monoisopropylidine-2-keto-L-gulonyl-L-leucyl)amino]-2-oxo-4-phenylbutyl] phosphate)]",116000 M⁻¹ s⁻¹
